From US20120165319A1, “INHIBITORS OF INTERLEUKIN-1 BETA CONVERTING ENZYME” (VERTEX PHARMACEUTICALS INCORPORATED, priority 1995, published 2012)
Read-outs that look alike come from different tables or passages of the source. One block for each molecule: values may come before it.

Columns and labels:
[1] = system: IL-1β production, LPS-challenged mice; experiment: In vivo acute assay for efficacy as anti-inflammatory agent: LPS-induced IL-1β production in mice; set-up: species or system mouse; conditions: Mus musculus, po, LPS challenged mice, compound PO, 50 mg/kg, read-out: percent inhibition of IL-1β production
Protocol: In Vivo Acute Assay for Efficacy as Anti-Inflammatory Agent
LPS-Induced IL-1β Production.
Efficacy of 214e and 217e was evaluated in CD1 mice (n=6 per condition) challenged with LPS (20 mg/kg IP). […] Blood was collected seven hours after LPS challenge. Serum IL-1β levels were measure by ELISA. […] Similar results were obtained in a second experiment. […] However, a clear dose response was not apparent.
Compounds 214e and 217e (50 mg/kg) were also administered by oral gavage to assess absorption.
The efficacy of analogs of 214e were also evaluated in LPS challenged mice after IP administration (FIG. 9) and PO administration (FIG. 10).
[…] The protocol is described in Example 7.

ICE = molecular target: T1, ICE (Homo sapiens, UniProt P29466); experiment: Enzyme assay with UV-visible substrate (visible ICE assay, Succinyl-Tyr-Val-Ala-Asp-pNitroanilide); type: biochemical
T1 sequence (P29466 120-297 limits assumed): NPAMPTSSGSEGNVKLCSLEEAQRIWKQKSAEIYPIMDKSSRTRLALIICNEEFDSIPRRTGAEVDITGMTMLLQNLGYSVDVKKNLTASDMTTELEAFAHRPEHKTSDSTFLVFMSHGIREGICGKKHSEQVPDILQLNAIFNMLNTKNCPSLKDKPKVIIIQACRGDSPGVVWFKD
T1 sequence (P29466 317-404 limits assumed): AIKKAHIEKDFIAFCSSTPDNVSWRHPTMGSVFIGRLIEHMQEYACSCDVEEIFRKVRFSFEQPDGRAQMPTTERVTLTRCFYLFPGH
Procedure, shortened: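 Buffer, ICE and inhibitor in DMSO are combined and held 15 min at room temperature. Succinyl-Tyr-Val-Ala-Asp-pNA is then added and absorbance at 405-603 nm tracked for 20 min at 37° C.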

[2] = system: IL-1β, human peripheral blood mononuclear cells (PBMC); experiment: PBMC cell assay: IL-1β assay with human PBMC or enriched adherent mononuclear cells, LPS-stimulated; type: cell-based
Procedure, shortened: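 Buffy-coat human PBMC at 6×10^6 cells/ml, or adherent monocytes enriched by 1 h adherence (2.5−3.0×10^5 cells/well), are given 5–6 compound dilutions bracketing the ICE Ki (final DMSO 0.1%) plus LPS at a final 5 ng/ml. They are incubated 16–18 hr at 37 °C, 5% CO2, and supernatant mature IL-1β is measured by ELISA, with duplicate cultures and duplicate ELISAs.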

IL-1β, human whole blood = experiment: Whole blood assay for IL-1β production; type: cell-based; conditions: read-out: Whole human blood IC50
Procedure, shortened: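 Human whole blood collected on Na2EDTA was treated with serially diluted compound in saline and then stimulated with LPS at 5.0 ng/ml final, for 16-18 h at 30 °C, in duplicate or triplicate. Plasma IL-1β was measured by ELISA at 1:200 dilution.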

[3] = Homo sapiens, PBMC, * = values obtained upon reassay
[4] = Homo sapiens, * = values obtained upon reassay
[5] = * = values obtained upon reassay

Ki (ICE; Table 5): 0.0036 µM
IC50 (IL-1β, human whole blood; [4]): 1.5 µM
SMILES: O=C[C@H](CC(=O)O)NC(=O)[C@@H]1CCCN2C(=O)CC[C@H](NC(=O)c3ccc(Oc4ccccc4)cc3)C(=O)N12 [Compound 443]
IC50 [2, 3]: 2.8 µM

Ki (ICE; Table 17): 0.018 µM
IC50 (IL-1β, human whole blood; Homo sapiens, Table 17): 4.4 µM
SMILES: COc1ccccc1C(=O)C(=O)NN1CCC(=O)N2CCC[C@@H](C(=O)N[C@H](C=O)CC(=O)O)N2C1=O [Compound 1111]
IC50 ([2]; Homo sapiens, PBMC, Table 17): 6.05 µM

Ki (ICE; Table 5): 0.0023 µM
IC50 (IL-1β, human whole blood; [4]): 2 µM
SMILES: Nc1cc2ccccc2cc1C(=O)N[C@H]1CCC(=O)N2CCC[C@@H](C(=O)N[C@H](C=O)CC(=O)O)N2C1=O [Compound 440]
IC50 [2, 3]: 5 µM

Ki (ICE; Table 5): 0.125 µM
IC50 (IL-1β, human whole blood; [4]): > 20 µM
SMILES: O=C[C@H](CC(=O)O)NC(=O)CN1C(=O)[C@@H](NC(=O)c2ccccc2)CN(C(=O)NCc2ccccc2)c2ccccc21 [Compound 605p, (3S)-3-[(3S)-2-Oxo-3-benzoylamino-5-benzylaminocarbonyl-2,3,4,5-tetrahydro-1H-1,5-benzodiazepin-1-acetylamino]-4-oxo-butyric acid]
IC50 [2, 3]: 3.2 µM

Ki (ICE; Table 5): 0.002 µM
IC50 (IL-1β, human whole blood; [4]): 0.9 µM
SMILES: CCC(=O)Nc1ccc(C(=O)N[C@H]2CCC(=O)N3CCC[C@@H](C(=O)N[C@H](C=O)CC(=O)O)N3C2=O)cc1 [Compound 485]
IC50 [2, 3]: 0.9 µM

Ki (ICE; Table 5): 0.0008 µM
IC50 (IL-1β, human whole blood; [4]): 0.65 µM
SMILES: O=C[C@H](CC(=O)O)NC(=O)[C@@H]1CCCN2C(=O)CC[C@H](NC(=O)c3ccc4cc(O)ccc4c3)C(=O)N12 [Compound 425]
IC50 [2, 5]: 0.7 µM
IC50 [2, 3]: 0.65 µM

Ki (ICE; Table 5): 0.025 µM
IC50 (IL-1β, human whole blood; [5]): 0.85 µM
IC50 (IL-1β, human whole blood; [4]): 0.8 µM
SMILES: COc1ccc(C(=O)N[C@H]2CCC(=O)N3CCC[C@@H](C(=O)N[C@H](C=O)CC(=O)O)N3C2=O)cc1F [Compound 493]
IC50 [2, 3]: 1.2 µM

Ki (ICE; Table 5): 0.016 µM
IC50 (IL-1β, human whole blood; [4]): 6 µM
SMILES: O=C[C@H](CC(=O)O)NC(=O)[C@@H]1CCCN2C(=O)CC[C@H](NC(=O)OCc3ccccc3)C(=O)N12 [Compound 496]
IC50 [2, 5]: 1.6 µM
IC50 [2, 3]: 1.55 µM

Ki (ICE; Table 17): 0.035 µM
IC50 (IL-1β, human whole blood; Homo sapiens, Table 17): 2.9 µM
SMILES: COCC(=O)N1C[C@H](NC(=O)C(=O)c2ccccc2)C(=O)N(CC(=O)N[C@H](C=O)CC(=O)O)c2ccccc21 [Compound 642, (3S)-3-[(3S)-2-Oxo-3-benzoylformylamino-5-methoxyacetyl-2,3,4,5-tetrahydro-1H-1,5-benzodiazepine-1-acetylamino]-4-oxo-butyric acid]
IC50 ([2]; Homo sapiens, PBMC, Table 17): 8 µM

Ki (ICE; Table 17): 0.075 µM
IC50 (IL-1β, human whole blood; Homo sapiens, Table 17): 1.7 µM
SMILES: O=C[C@H](CC(=O)O)NC(=O)[C@@H]1CCCN2C(=O)CCN(NC(=O)C(=O)c3ccccc3)C(=O)N12 [Compound 1106]
IC50 ([2]; Homo sapiens, PBMC, Table 17): 4 µM

Ki (ICE; Table 5): 0.003 µM
IC50 (IL-1β, human whole blood; [4]): 0.8 µM
SMILES: Cc1c(Cl)cccc1C(=O)N[C@H]1CCC(=O)N2CCC[C@@H](C(=O)N[C@H](C=O)CC(=O)O)N2C1=O [Compound 465]
IC50 [2, 3]: 1 µM

Ki (ICE; Table 5): 0.115 µM
IC50 (IL-1β, human whole blood; [4]): 2.4 µM
SMILES: CS(=O)(=O)c1ccc(C(=O)N[C@H]2CCC(=O)N3CCC[C@@H](C(=O)N[C@H](C=O)CC(=O)O)N3C2=O)cc1 [Compound 460]
IC50 [2, 3]: 0.4 µM

Ki (ICE; Table 5): 0.015 µM
IC50 (IL-1β, human whole blood; [4]): 3.5 µM
SMILES: O=C[C@H](CC(=O)O)NC(=O)[C@@H]1CCCN2C(=O)CC[C@H](NC(=O)c3c(Cl)cccc3Cl)C(=O)N12 [Compound 444]
IC50 [2, 3]: 3.5 µM

Ki (ICE; Table 5): 0.004 µM
IC50 (IL-1β, human whole blood; [4]): 2.3 µM
SMILES: O=C[C@H](CC(=O)O)NC(=O)[C@@H]1CCCN2C(=O)CC[C@H](NC(=O)c3ccccc3Cl)C(=O)N12 [Compound 406]
IC50 [2, 3]: 1.65 µM

Further lines, the molecule ahead of its results:

SMILES: O=C(CN1C(=O)[C@@H](NC(=O)c2ccccc2)CN(C(=O)CO)c2ccccc21)N[C@H]1CC(=O)OC1OCc1ccccc1 (mixture of isomers) [Compound 695a, (3S)-2-Oxo-3-benzoylamino-5-hydroxyacetyl-N-[(2RS,3S)-benzyloxy-5-oxo-tetrahydrofuran-3-yl]-2,3,4,5-tetrahydro-1H-1,5-benzodiazepine-1-acetamide]
inhibition at 50 mg/kg ([1]; 0 h, administered 0 h relative to time of LPS challenge): 78%
inhibition at 50 mg/kg ([1]; 2 h, administered −2 h relative to time of LPS challenge): 49%

SMILES: CC(=O)Nc1ccc(C(=O)N[C@H]2CN(C(=O)CO)c3ccccc3N(CC(=O)N[C@H](C=O)CC(=O)O)C2=O)cc1 [Compound 911]
Ki (ICE; Table 17): 0.009 µM
IC50 ([2]; Homo sapiens, PBMC, Table 17): 3.5 µM
IC50 (IL-1β, human whole blood; Homo sapiens, Table 17): 1.9 µM

SMILES: CNC(=O)Nc1ccc(C(=O)N[C@H]2CCC(=O)N3CCC[C@@H](C(=O)N[C@H](C=O)CC(=O)O)N3C2=O)cc1 [Compound 489]
Ki (ICE; Table 5): 0.006 µM
IC50 [2, 5]: 1.7 µM
IC50 [2, 3]: 2.25 µM
IC50 (IL-1β, human whole blood; [4]): 15 µM

SMILES: COc1ccccc1C(=O)C(=O)N[C@H]1CN(C(=O)CO)c2ccccc2N(CC(=O)N[C@H](C=O)CC(=O)O)C1=O [Compound 921]
Ki (ICE; Table 17): 0.0085 µM
IC50 ([2]; Homo sapiens, PBMC, Table 17): 1.8 µM
IC50 (IL-1β, human whole blood; Homo sapiens, Table 17): 3 µM

SMILES: COc1cc(C(=O)N[C@H]2CCC(=O)N3CCC[C@@H](C(=O)N[C@H](C=O)CC(=O)O)N3C2=O)nc2ccccc12 [Compound 437]
Ki (ICE; Table 5): 0.012 µM
IC50 [2, 3]: 1.8 µM
IC50 (IL-1β, human whole blood; [4]): 5 µM

SMILES: COc1cccc(OC)c1C(=O)C(=O)NN1CCC(=O)N2CCC[C@@H](C(=O)N[C@H](C=O)CC(=O)O)N2C1=O [Compound 1112]
Ki (ICE; Table 17): 0.0035 µM
IC50 ([2]; Homo sapiens, PBMC, Table 17): 1.8 µM
IC50 (IL-1β, human whole blood; Homo sapiens, Table 17): 2.3 µM

SMILES: O=C(O)CC(NC(=O)[C@@H]1CCCN2C(=O)CC[C@H](NC(=O)c3ccccc3)C(=O)N12)C(=O)COCc1ccccc1Cl (stereo partly shown) [Compound 227e]
Ki (ICE; Table 5): 0.007 µM
IC50 [2, 3]: 0.234 µM
IC50 (IL-1β, human whole blood; [4]): 0.55 µM

SMILES: CCCC(=O)Nc1ccc(C(=O)N[C@H]2CCC(=O)N3CCC[C@@H](C(=O)N[C@H](C=O)CC(=O)O)N3C2=O)cc1 [Compound 488]
Ki (ICE; Table 5): 0.0015 µM
IC50 [2, 3]: 0.94 µM
IC50 (IL-1β, human whole blood; [4]): 0.75 µM

SMILES: CC(=O)Nc1ccc(C(=O)N[C@H]2CN(C(C)=O)c3ccccc3N(CC(=O)N[C@H](C=O)CC(=O)O)C2=O)cc1 [Compound 627]
Ki (ICE; Table 5): 0.043 µM
IC50 [2, 3]: 3.25 µM
IC50 (IL-1β, human whole blood; [4]): 8 µM

SMILES: O=C[C@H](CC(=O)O)NC(=O)[C@@H]1CCCN2C(=O)CC[C@H](NC(=O)c3ccc4nn[nH]c4c3)C(=O)N12 [Compound 432]
Ki (ICE; Table 5): 0.0016 µM
IC50 [2, 3]: 0.56 µM
IC50 (IL-1β, human whole blood; [4]): 2 µM

SMILES: COCC(=O)N1C[C@H](NC(=O)c2cc(C)c(O)c(C)c2)C(=O)N(CC(=O)N[C@H](C=O)CC(=O)O)c2ccccc21 [Compound 689b, (3S)-3-[(3S)-2-Oxo-3-(3,5-dimethyl-4-hydroxybenzoyl)amino-5-methoxyacetyl-2,3,4,5-tetrahydro-1H-1,5-benzodiazepine-1-acetylamino]-4-oxo-butyric acid]
Ki (ICE; Table 17): 0.0022 µM
IC50 ([2]; Homo sapiens, PBMC, Table 17): 0.6 µM
IC50 (IL-1β, human whole blood; Homo sapiens, Table 17): 2 µM

SMILES: Nc1ccc(C(=O)N[C@H]2CCC(=O)N3CCC[C@@H](C(=O)N[C@H](C=O)CC(=O)O)N3C2=O)cc1 [Compound 431]
Ki (ICE; Table 5): 0.008 µM
IC50 [2, 3]: > 8 µM
IC50 (IL-1β, human whole blood; [4]): 8 µM

SMILES: Cn1c(C(=O)N[C@H]2CCC(=O)N3CCC[C@@H](C(=O)N[C@H](C=O)CC(=O)O)N3C2=O)cc2ccccc21 [Compound 433]
Ki (ICE; Table 5): 0.0029 µM
IC50 [2, 5]: 1.1 µM
IC50 [2, 3]: 1 µM
IC50 (IL-1β, human whole blood; [4]): 1.1 µM

SMILES: O=C[C@H](CC(=O)O)NC(=O)CN1C(=O)[C@@H](NC(=O)c2cccc3ccccc23)CN(C=O)c2ccccc21 [Compound 653, (3S)-3-[(3S)-2-Oxo-3-(1-naphthoyl)amino-5-formyl-2,3,4,5-tetrahydro-1H-1,5-benzodiazepine-1-acetylamino]-4-oxo-butyric acid]
Ki (ICE; Table 17): 0.03 µM
IC50 ([2]; Homo sapiens, PBMC, Table 17): 2.3 µM
IC50 (IL-1β, human whole blood; Homo sapiens, Table 17): 6 µM

SMILES: CC(=O)N1C[C@H](NC(=O)C(=O)c2c[nH]c3ccccc23)C(=O)N(CC(=O)N[C@H](C=O)CC(=O)O)c2ccccc21 [Compound 703]
Ki (ICE; Table 17): 0.005 µM
IC50 ([2]; Homo sapiens, PBMC, Table 17): 1.4 µM
IC50 (IL-1β, human whole blood; Homo sapiens, Table 17): 20 µM
